Assay: xn = mol fraction of the nth substance listed
Settings: 101 kPa

CNc1ccccc1 + CC[n+]1ccn(C)c1.F[B-](F)(F)F
speed of sound [m/s]
Settings	293.15 K	298.15 K	303.15 K	308.15 K
x1 = 0.0712	–	1614.7	1602.2	1590.8
x1 = 0.0944	–	1613.8	1601	–
x1 = 0.1175	–	1613.2	1600.3	1588.7
x1 = 0.1685	1624.3	1612.5	1599.3	1587.6
x1 = 0.2164	–	–	1599.5	1587
x1 = 0.2818	1626.5	1613.9	–	1587.3
x1 = 0.3365	1628.2	–	1601.2	1587.4
x1 = 0.3805	1629.4	1616.2	1602.2	–
x1 = 0.4166	1630.8	1617.3	1602.8	1587.8
x1 = 0.4775	1632.2	1617.7	1602.8	1587.7
x1 = 0.5287	1632.6	1617.9	1602.4	1586.3
x1 = 0.5855	1631.8	1616.5	1601.1	1584.2
x1 = 0.6144	1631	1615.8	1599.8	1583
x1 = 0.6638	1629.2	1612.8	1596.4	–
x1 = 0.7202	1625.3	1608.7	1591.8	1573.8
x1 = 0.7822	1618.8	1601.9	1584.4	1566.7
x1 = 0.8343	1612	1594.6	1577.1	1558.8
x1 = 0.8775	1605.6	1587.8	1570.3	1551.7

Nc1ccccc1 + CC[n+]1ccn(C)c1.F[B-](F)(F)F
speed of sound [m/s]
Settings	293.15 K	298.15 K	303.15 K	308.15 K
x1 = 0.0697	–	1622.2	1610.3	–
x1 = 0.0803	1635.7	1622.9	–	1598.9
x1 = 0.1286	1640	1626.7	1614.7	1602.6
x1 = 0.1717	–	1631.2	–	1606.5
x1 = 0.2251	1650.5	1637.2	–	1612.4
x1 = 0.2724	1656.5	–	1630.2	1617.6
x1 = 0.3253	1662.9	–	1636.4	1624.1
x1 = 0.3805	1669.9	–	1642.3	1630.2
x1 = 0.4288	1675	1662	1647.5	1634.5
x1 = 0.4681	1679	1666.2	–	1637.9
x1 = 0.5287	–	1670.4	–	1642
x1 = 0.5755	–	1673.2	–	1643
x1 = 0.6258	–	1673.9	–	1643.3
x1 = 0.6802	–	1673.3	1655.5	–
x1 = 0.7231	–	1672	–	1639.2
x1 = 0.7785	1685.7	1667.6	1648.9	1634.7
x1 = 0.8257	1681.7	1663.2	1644.1	1628.9
x1 = 0.8697	–	–	1638.4	–

Cc1ccccc1N + CC[n+]1ccn(C)c1.F[B-](F)(F)F
speed of sound [m/s]
Settings	293.15 K	298.15 K	303.15 K	308.15 K
x1 = 0.0684	1639.1	1625	1612.5	1600.1
x1 = 0.0786	–	1626.5	–	1601.3
x1 = 0.1243	–	1634.3	1621.2	1607.9
x1 = 0.1783	–	1645.9	1632	1618
x1 = 0.2255	1668.2	1657.2	1643.2	–
x1 = 0.2781	1679.5	1670.1	–	1640.6
x1 = 0.3234	1689.5	–	1667.1	1651.6
x1 = 0.3712	–	–	1678	1662.1
x1 = 0.4096	1706.3	–	1685.2	1669.1
x1 = 0.4763	1716.8	1710.8	–	1679
x1 = 0.5242	1722.8	1716	1700.5	1683.9
x1 = 0.5781	1726.3	1717.7	1701.7	1685
x1 = 0.6254	1725.7	–	1698.4	–
x1 = 0.6771	1723.3	1709.7	1692.5	1675.6
x1 = 0.7226	1716.8	1700.6	1682.6	1665.6
x1 = 0.7683	1708	1689.4	1670.5	1653.2
x1 = 0.8276	1692.8	1671.5	1651.2	1633.6
x1 = 0.8687	1679	1656.7	1635.4	1617.4
